Legend:
[1] = system: Plasmodium falciparum; assay: Hit confirmation in dose-response curve in NF54 nanoGlo assay, at 72h; format: functional, organism-based, Erythrocyte; design: timepoint 72 hour; conditions: Plasmodium falciparum, NF54, Erythrocyte, 72 h
[2] = system: Plasmodium falciparum; assay: Hit confirmation in dose-response curve in NF54 pLDH assay, at 72h; format: functional, organism-based; design: timepoint 72 hour; conditions: NF54, Erythrocyte
[3] = system: Plasmodium falciparum; assay: Hit confirmation in dose-response curve in Dd2 pLDH assay, at 72h; format: functional, organism-based; design: timepoint 72 hour; conditions: Dd2, Erythrocyte
[4] = system: Plasmodium falciparum; assay: Hit confirmation in dose-response curve in NF54 nanoGlo assay, at 12h; format: functional, organism-based, Erythrocyte; design: timepoint 12 hour; conditions: Plasmodium falciparum, NF54, Erythrocyte, 12 h
[5] = Hit confirmation in dose-response curve in HepG2 cytotoxicity assay, at 72h; format: toxicity, cell-based; design: timepoint 72 hour; conditions: human, HepG2 cells

IC50 [1] [µM] | IC50 [2] [µM] | IC50 [3] [µM] | IC50 [4] [µM] | SMILES | IC50 at 72 h [5] [µM]
3.39 | 7.59 | 5.89 | 9.55 | C[C@@H](CNc1nc(-c2ccccc2)nc2nc(-c3ccc(Cl)cc3)oc12)N1CCCCC1 | > 10
2.82 | 6.03 | 5.5 | 4.68 | COc1ccccc1N(Cc1ccccc1)C1=NC(=[N+](Cc2ccccc2)c2ccccc2OC)c2ccccc21 | > 10
1.91 | 5.62 | 5.37 | > 10 | COc1ccc2c(c1)[n+](CC(=O)c1ccc(-c3ccc(Br)cc3)cc1)c(CO)n2C | > 10
0.479 | 0.38 | 0.355 | 0.708 | CN1CCN(C2(CNc3ccnc4ccccc34)CCCC2)CC1 | > 10
1.66 | 2.4 | 2.19 | 2.82 | CC(C)CC[C@@H](CCNC1CCN(C)CC1)c1ccc(Cl)cc1 | > 10
2.4 | 2.75 | 3.72 | 5.75 | COc1cc([C@H](CC(=O)NC2CCN(Cc3ccccc3)CC2)N2Cc3ccccc3C2=O)cc(OC)c1OC | > 10
1.05 | 2.82 | 2.29 | > 10 | Cc1cc(C)c(NC(=O)OCc2cccc3cccnc23)c(C)c1 | > 10
1.45 | 3.8 | 3.02 | 1.91 | Cc1ccc(S(=O)(=O)c2c(NS(=O)(=O)c3ccccc3)n(CCc3ccccc3)c3nc4ccccc4nc23)cc1 | > 10
2.63 | 2.69 | 2.63 | 4.07 | O=C(NCCN1CCCC1)c1ccc2nc(-c3ccc(Cl)cc3)cn2c1 | > 10
2.4 | 5.37 | 3.89 | 5.89 | O=C(Nc1cccc(Cl)c1)Nc1cccc(-c2cnc3n2CCC3)c1 | > 10
1.58 | 2.75 | 1.95 | 2.09 | Oc1cc(CC[C@H]2CCCCN2)cc(-c2cnc3ccccc3n2)c1 | > 10
2.75 | 0.447 | > 10 | > 10 | Cc1ccc(C(F)(F)C(=O)NCCC(=O)NS(C)(=O)=O)cc1 | > 10
3.09 | 3.47 | 2.63 | > 10 | C=Cn1cc[n+](CC(=O)c2ccc(-c3ccccc3)cc2)c1 | > 10
2.45 | 7.24 | 8.32 | 3.8 | CCC1=Nc2ccccc2N=C(NC(=O)C(C)C)[C@H]1c1ccc(F)cc1 | > 10
1.51 | 2.04 | 1.78 | 5.01 | Cc1cc(N2C[C@H]3CC[C@@H](C2)[C@H]3N(C)C)nc(Nc2cccc(O)c2)n1 | > 10
4.07 | 6.17 | > 10 | > 10 | COc1nc(N2[C@@H]3CC[C@H]2C[C@@H](OC)C3)ncc1F | > 10
1.82 | 3.16 | 3.39 | > 10 | C=C1C(C)C2C(Cc3c[nH]c4ccccc34)NC(=O)C23C(=O)CC(O)C(O)CC(C)C/C=C/C3C1O (stereo not given) | > 10
0.513 | 1.15 | 1.95 | 0.977 | c1cc(-c2nc3cc4ccccc4cc3[nH]2)nc(-c2nc3cc4ccccc4cc3[nH]2)c1 | 8.32
2.45 | 3.24 | 3.63 | > 10 | c1ccc(CCNc2nc(-c3ccccn3)cs2)cc1 | > 10
0.912 | 1.86 | 0.661 | > 10 | CNc1nc(NCCc2ccccc2)nc2ccccc12 | > 10
2.24 | 8.32 | 7.94 | 1.66 | O=C(Nc1cccnc1)c1ccc(-c2ccc(Cl)c(Cl)c2)o1 | > 10
1.62 | 9.33 | 8.91 | > 10 | CC(C)c1cc(=O)[nH]c(-n2nc(C3CC3)cc2NC(=O)COc2ccc3ccccc3c2)n1 | > 10
3.39 | > 10 | > 10 | 1.48 | Cc1cc(Br)cc(N[C@H](c2cccnc2)c2ncc[nH]2)c1 | > 10
1.26 | 4.07 | 3.24 | > 10 | CCc1cc(=O)[nH]c(-n2nc(C3CC3)cc2NC(=O)C2CCCCC2)n1 | > 10
5.01 | 7.24 | > 10 | > 10 | CN(C)c1noc(CN2CCc3ccc(F)cc3C2)n1 | > 10

IC50 [1] [µM] | IC50 [2] [µM] | IC50 [3] [µM] | IC50 [4] [µM] | SMILES | IC50 at 72 h [5] [µM]
1.2 | 0.0891 | 0.832 | > 10 | c1ccc(-c2nc(C[n+]3ccc4c(c3)CCCC4)cs2)cc1 | > 10
2.69 | > 10 | > 10 | 1.95 | COc1ccc(-c2c(C)nn3c(N4CCC(C(=O)NC5CC5)CC4)cc(C)nc23)cc1OC | > 10
0.575 | 0.603 | 0.525 | > 10 | Clc1ccc(C[n+]2ccc(-c3nc4ccccc4o3)cc2)c(Cl)c1 | > 10
0.537 | 0.759 | 0.646 | 9.55 | COc1ccc(C(=O)C[n+]2nc(CNc3ccc(Br)cc3)n3c2CCCCC3)cc1 | > 10
2.82 | 3.31 | 2.88 | > 10 | Cn1n[n+](CCCCC(Cl)(Cl)Cl)c2ccccc21 | > 10
2.14 | 3.47 | 2.51 | 6.31 | O[C@@]1(CN2CCC(COc3ccc4c(c3)CCC4)CC2)CCCNC1 | > 10
2.24 | 7.41 | 5.62 | 4.9 | COc1ccc(-c2cc3nc(C)cc(N4CCN(C/C=C/c5ccccc5)CC4)n3n2)cc1OC | > 10
3.8 | 2.24 | 4.9 | > 10 | O=C(N[C@@H](CN1CCCC1)c1ccccc1)N1CCC(c2ccn[nH]2)CC1 | > 10
3.72 | 6.03 | 3.63 | > 10 | O=C(CCCc1ccccc1)Nc1cc(C2CC2)nn1-c1nc(-c2ccccc2)cc(=O)[nH]1 | > 10
1.51 | 4.37 | 4.17 | 4.07 | CC[C@@]1(C)CCCN(C(=O)Cc2c(C)noc2Cl)C1 | > 10
2.24 | 8.13 | 4.07 | > 10 | O=C1NCCCOc2cccc(c2)[C@H]2c3ccc(cc3CCN2C(=O)CCN2CCOCC2)Oc2ccc(O)c1c2 | > 10
1.55 | 3.47 | 1.86 | 5.75 | CCOc1ccc(Nc2c3ccccc3nc3ccccc23)cc1 | > 10
1.35 | 3.55 | 3.24 | 1.62 | Cc1ccc(CN2CCN(C[C@@H](O)Cn3c4ccccc4n4c(=O)cc(C)c(C#N)c34)CC2)c(C)c1 | > 10
3.39 | 9.33 | 4.68 | 5.75 | Cc1ccc(N(Cc2cccs2)C(=O)c2cccs2)cc1Cl | > 10
1.1 | > 10 | 5.01 | > 10 | Cc1cc(=O)[nH]c(-n2nc(C3CC3)cc2NC(=O)C(C)(C)Oc2ccc(Cl)cc2)n1 | > 10
2 | 4.17 | 2.29 | 5.75 | N[C@H]1C[C@@H](c2cc(N3CCN(C4CCCCC4)CC3)nc(N3CCCC3)n2)C1 | > 10
1.51 | 2.45 | 1.38 | 3.98 | CN(C)CC(O)COc1ccc(S(=O)(=O)c2ccc(OCC(O)CN(C)C)c(Cl)c2)cc1Cl (stereo not given) | > 10
2.82 | 4.79 | 3.39 | > 10 | Cc1cccc(-c2nc(C[N+]3(Cc4nc(-c5cccc(C)c5)oc4C)CCCC3)c(C)o2)c1 | > 10
1.91 | > 10 | 4.9 | 2.69 | CCOc1ccc(-c2cc(NC(=O)c3cc(-c4cccnc4)nc4ccccc34)on2)cc1OCC | > 10
2.95 | 3.8 | 2.45 | 3.8 | CN1CCCN(c2ccnc3ccsc23)CC1 | > 10
1.62 | 1.82 | 1.51 | 2.95 | CC[C@H](O)CN1CCC(Nc2ncnc3cc(Cl)ccc23)CC1 | > 10
4.47 | 9.77 | 6.46 | 7.08 | CCN(CC)CCn1c2ccccc2n2cc(-c3ccc(Br)cc3)nc12 | > 10
3.24 | > 10 | > 10 | 5.89 | CCN(CC)C(=O)c1cnc2snc(C)c2c1N1CCC(C(=O)Nc2c(C)cc(C)cc2C)CC1 | > 10
> 10 | > 10 | > 10 | > 10 | CN(Cc1ccsc1)C(=O)c1cc2ccccc2[nH]1 | > 10

SMILES | IC50 [1] [µM] | IC50 [2] [µM] | IC50 [3] [µM] | IC50 [4] [µM] | IC50 at 72 h [5] [µM]
O=C(c1ccccc1)c1cc(Cl)ccc1NC(=O)[C@H]1CC(=O)N(c2ccc(F)cc2)C1 | 2.24 | 3.39 | 4.17 | 4.37 | > 10
